Patent publication US20030039672A1, “Cosmetic composition and method of treating skin” (Unilever Home & Personal Care USA, Division of Conopco, Inc., priority 2001, published 2003)

Assays:
Type in all cases: cell-based
[1] = system: decorin synthesis in human dermal fibroblasts; test: Dot blot assay for decorin protein in dermal fibroblast conditioned medium; details: for Decorin Level: 24 hours, relative to vehicle treated control value of 100
Protocol: (§1) Primary human foreskin fibroblasts at passage 2 (P2) were seeded into 12-well plates at 10000 cells/cm^2 and maintained for 24 hours in an atmosphere of 5% carbon dioxide and 4% oxygen in Dulbeccos Modified Eagles Medium (DMEM) supplemented with 10% foetal calf serum. After this time the cells were washed with serum free DMEM and then incubated in fresh serum free DMEM for a further 60 hours. The fibroblast monolayers were then washed again with serum free DMEM. Test reagents and vehicle controls were added to the cells in triplicate in a final volume of 0.4 ml/well fresh serum free DMEM and incubated for a further 24 hours. This fibroblast conditioned medium was either analysed immediately or snap frozen in liquid nitrogen and stored at −70° C. for future analysis. The cells were then counted and data from the dot-blot analysis subsequently standardised to cell number.
(§2) Samples of conditioned medium from dermal fibroblasts treated with vehicle (as a control) or test reagents were supplemented with 20 mM dithiothreitol (1:10 dilution of 200 mM stock solution) and 0.1% sodium dodecylsulphate (1:100 dilution of 10% stock solution), mixed well and then incubated at 75° C. for 2 minutes. A standard for the assay was generated by serial dilution of neat fibroblast conditioned medium from fibroblasts seeded at 10000 cells/cm^2 in a 175 cm^2 flask and maintained in serum free DMEM as described above. […]
(§3) Following this the Immobilon strips were again washed with TBS/Tween 20 (3×5 minutes) before being allowed to dry in air at room temperature. […] Dot intensity was assessed by computer-assisted image analysis using the quantification tools in ImageQuant™, standardised to cell number and the effects of various test reagents on decorin and procollagen-I synthesis were determined relative to a vehicle treated control value of 100 arbitrary units.
(§4) In order to normalise the results the effects of the test substance was determined relative to a vehicle treated control value of 100 arbitrary units.

[2] = system: Human foreskin keratinocytes; test: DNA concentration of keratinocyte extract (Pico Green DNA assay); details: 4 days of treatment
Protocol: (§5) Human foreskin keratinocytes at passage 3 (P3) were seeded into 96 well plates at 4000 cells/well in Dubleccos Modified Eagles Medium (DMEM), 0.03 mM calcium. The cells were grown for 3 days prior to treatment. The treatment vehicle was DMSO. After 4 days of treatment, the cells were harvested and washed three times with 100 μl phosphate buffered saline (PBS). The cells were then extracted in 1% Triton X100, 50 mM Tris pH 8.0, 0.02 mM Leupeptin, 0.02 mM Pepstatin. 60 il/well of extract was then assayed for DNA concentration (ng/well), Pico Green DNA assay, Molecular Probes.

[3] = system: Human foreskin keratinocytes; test: Cornified envelope production in keratinocytes (silver-stained dot blot); details: for Cornified Envelope % Control / Cornified Envelope Mean: 4 days of treatment
Protocol: as §5
The cells were then washed in 200 μl PBS, and then 100 μl of 2% SDS, 20 mM DTT was added to each well. The plates were then sealed with a Titertek plate sealer (ICN) and incubated at 60° C. over night in an air tight damp environment (i.e. a sealed sandwich box lined with damp paper). The extract was then filtered through a PVDF transfer membrane (Bio-rad) under gravity using Dot-Blot apparatus (Bio-rad). The membrane is then washed in distilled water prior to silver staining (Bio-rad Silver Stain kit). The stained dot blot membrane is then analysed using Phoretix array software (Phoretix International).

[4] = system: procollagen-I synthesis in human dermal fibroblasts; test: Dot blot assay for procollagen-I protein in dermal fibroblast conditioned medium; details: for Procollagen Level: 24 hours, relative to vehicle treated control value of 100
Protocol: as §1, §2, §3, §4

[5] = human dermal fibroblasts, statement in words

## CC/C=C\C/C=C\C/C=C\CCCCCC(=O)O [Hexadecatrienoic acid, hexadecatrienoic acid (C16:3(c7, c10, c13))]
[1]; 1 μM
  Decorin Level: 108.7 arbitrary units
[1]; 10 μM
  Decorin Level: 115.4 arbitrary units
[1]; [5]
  synthesis of decorin as compared to the control: significantly upregulates
[2]; 0.1 μM
  DNA Results % Control: 59 % Control
  DNA Results Mean: 0.98 ng/well
[2]; 0.5 μM
  DNA Results % Control: 89 % Control
  DNA Results Mean: 1.48 ng/well
[2]; 1 μM
  DNA Results % Control: 76 % Control
  DNA Results Mean: 1.27 ng/well
[2]; 10 μM
  DNA Results % Control: 68 % Control
  DNA Results Mean: 1.13 ng/well
[3]; 0.1 μM
  Cornified Envelope % Control: 98 % Control
  Cornified Envelope Mean: 17617
[3]; 0.5 μM
  Cornified Envelope % Control: 133 % Control
  Cornified Envelope Mean: 24009
[3]; 1 μM
  Cornified Envelope % Control: 200 % Control
  Cornified Envelope Mean: 36017
[3]; 10 μM
  Cornified Envelope % Control: 227 % Control
  Cornified Envelope Mean: 40997
[3]; 1-10 μM application, statement in words
  cornified envelope production: increased
[4]; 1 μM
  Procollagen Level: 91.0 arbitrary units
[4]; 10 μM
  Procollagen Level: 184.2 arbitrary units
[4]; [5]
  synthesis of procollagen-I as compared to the control: significantly upregulates
